Measurements published in US20190375708A1 (VenatoRx Pharmaceuticals, Inc., priority 2018, published 2019).
pEC50: −log10 of the molar value.

Legend:
[1] = In vitro cytotoxicity assay (MTT cell viability) in HepG2 cells; type: cell-based, human; details: human
How it was run: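 CC50 values reflect loss of HepG2 viability after a 7-day exposure at 37 °C, 5% CO2. After 3-4 h with MTT, solubilized formazan was quantified at 492 nm relative to vehicle wells.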

[2] = test system: HBV replication in HepAD38 cells; experiment: Anti-HBV replication assay in HepAD38 cells (QPCR of extracellular HBV DNA); type: cell-based, HBV (genotype D, serotype ayw); details: Hepatitis B virus, 168 h, 7 days incubation, extracellular HBV DNA by QPCR, read-out: Anti-HBV EC50
How it was run: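 EC50 values reflect 50% reduction of extracellular HBV DNA, measured by QPCR after 7-day treatment of tetracycline-deprived HepAD38 cells with compound […].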

SMILES | CC50 at 7 days [1] [nM] | pEC50 [2]
Cc1cc(NC(=O)c2c(C)c(C(=O)C(=O)NCCCN3CCOCC3)n(C)c2C)ccc1F [Example 301, N-(4-fluoro-3-methylphenyl)-1,2,4-trimethyl-5-(2-((3-morpholinopropyl)amino)-2-oxoacetyl)-1H-pyrrole-3-carboxamide] | > 30000 | > 7.30
COc1c(C(=O)Nc2ccc(F)c(F)c2)c(C)n(C)c1C(=O)C(=O)NC1(C(F)(F)F)CC1 [Example 377, N-(3,4-difluorophenyl)-4-methoxy-1,2-dimethyl-5-(2-oxo-2-((1-(trifluoromethyl)cyclopropyl)amino)acetyl)-1H-pyrrole-3-carboxamide] | > 30000 | > 7.30
Cc1cc(NC(=O)c2c(C)c(C(=O)C(=O)N[C@H]3CC[C@](C)(O)CC3)n3c2CCCC3)ccc1F [Example 740, N-(4-fluoro-3-methylphenyl)-3-(2-(((1r,4r)-4-hydroxy-4-methylcyclohexyl)amino)-2-oxoacetyl)-2-methyl-5,6,7,8-tetrahydroindolizine-1-carboxamide] | > 30000 | > 7.30
Cc1c(C(=O)Nc2ccc(F)c(F)c2)c(C)n(C)c1C(=O)C(=O)NC12CCC(O)(CC1)CC2 [Example 335, N-(3,4-difluorophenyl)-5-(2-((4-hydroxybicyclo[2.2.2]octan-1-yl)amino)-2-oxoacetyl)-1,2,4-trimethyl-1H-pyrrole-3-carboxamide] | > 30000 | > 7.30
CC(=O)N1CCC(C)(NC(=O)C(=O)c2c(C)c(C(=O)Nc3ccc(F)c(C)c3)c(C)n2C)CC1 [Example 612, 5-(2-((1-acetyl-4-methylpiperidin-4-yl)amino)-2-oxoacetyl)-N-(4-fluoro-3-methylphenyl)-1,2,4-trimethyl-1H-pyrrole-3-carboxamide] | > 30000 | > 7.30
Cc1cc(NC(=O)c2c(C)c(C(=O)C(=O)NC(C)(C)CF)n(C)c2C)ccc1F [Example 6, 5-(2-((1-fluoro-2-methylpropan-2-yl)amino)-2-oxoacetyl)-N-(4-fluoro-3-methylphenyl)-1,2,4-trimethyl-1H-pyrrole-3-carboxamide] | > 30000 | > 7.30
Cc1c(C(=O)Nc2ccnc(F)c2)c(C)n(C)c1C(=O)C(=O)NC1CCSCC1 [Example 272, N-(2-fluoropyridin-4-yl)-1,2,4-trimethyl-5-(2-oxo-2-((tetrahydro-2H-thiopyran-4-yl)amino)acetyl)-1H-pyrrole-3-carboxamide] | > 30000 | > 7.30
Cc1cc(NC(=O)c2c(C)c(C(=O)C(=O)N[C@]3(C)CC[C@@H](O)CC3)n(C)c2C)ccc1F [Example 273, N-(4-fluoro-3-methylphenyl)-5-(2-(((1r,4r)-4-hydroxy-1-methylcyclohexyl)amino)-2-oxoacetyl)-1,2,4-trimethyl-1H-pyrrole-3-carboxamide] | > 30000 | > 7.30
Cc1cc(NC(=O)c2cc(C(=O)C(=O)N[C@H](CO)[C@@H](C)O)n3c2CCCC3)ccc1F [Example 433, 3-(2-(((2R,3R)-1,3-dihydroxybutan-2-yl)amino)-2-oxoacetyl)-N-(4-fluoro-3-methylphenyl)-5,6,7,8-tetrahydroindolizine-1-carboxamide] | > 30000 | 6.00 to 6.30
Cc1cc(NC(=O)c2c(C)c(C(=O)C(=O)NC3CCNC(=O)C3)n(C)c2C)ccc1F (stereo not drawn) [Example 286, N-(4-fluoro-3-methylphenyl)-1,2,4-trimethyl-5-(2-oxo-2-((2-oxopiperidin-4-yl)amino)acetyl)-1H-pyrrole-3-carboxamide] | > 30000 | > 7.30
Cc1cc(NC(=O)c2c(C)c(C(=O)C(=O)NCCn3ccnc3)n(C)c2C)ccc1F [Example 346, 5-(2-((2-(1H-imidazol-1-yl)ethyl)amino)-2-oxoacetyl)-N-(4-fluoro-3-methylphenyl)-1,2,4-trimethyl-1H-pyrrole-3-carboxamide] | > 30000 | > 7.30
Cc1cc(NC(=O)c2c(C)c(C(=O)C(=O)N[C@H]3CC[C@H](O)CC3)n(C)c2C)cnc1F [Example 175, N-(6-fluoro-5-methylpyridin-3-yl)-5-(2-(((1r,4r)-4-hydroxycyclohexyl)amino)-2-oxoacetyl)-1,2,4-trimethyl-1H-pyrrole-3-carboxamide] | > 30000 | 6.30 to 7.30
Cc1cc(NC(=O)c2c(Cl)c(C(=O)C(=O)NC(C)(C)CO)n3c2CCCC3)ccc1F [Example 490, 2-chloro-N-(4-fluoro-3-methylphenyl)-3-(2-((1-hydroxy-2-methylpropan-2-yl)amino)-2-oxoacetyl)-5,6,7,8-tetrahydroindolizine-1-carboxamide] | > 30000 | > 7.30
Cc1c(C(=O)Nc2cc(F)c(F)c(F)c2)c(Cl)c(C(=O)C(=O)N[C@@H]2CCC[C@@H]2O)n1C [Example 374, 4-chloro-5-(2-(((1R,2S)-2-hydroxycyclopentyl)amino)-2-oxoacetyl)-1,2-dimethyl-N-(3,4,5-trifluorophenyl)-1H-pyrrole-3-carboxamide] | 500 to 4990 | > 7.30
Cc1cc(NC(=O)c2c(C)c(C(=O)C(=O)N[C@H]3CCC[C@H](O)C3)n(C)c2C)ccc1F [Example 618, N-(4-fluoro-3-methylphenyl)-5-(2-(((1S,3S)-3-hydroxycyclohexyl)amino)-2-oxoacetyl)-1,2,4-trimethyl-1H-pyrrole-3-carboxamide] | > 30000 | > 7.30
CC(C)(C)NC(=O)C(=O)c1cc(C(=O)Nc2ccc(F)c(C#N)c2)c2n1CCCC2 [Example 392, 3-(2-(tert-butylamino)-2-oxoacetyl)-N-(3-cyano-4-fluorophenyl)-5,6,7,8-tetrahydroindolizine-1-carboxamide] | 5000 to 30000 | < 6.00
Cc1cc(NC(=O)c2c(C)c(C(=O)C(=O)NC[C@H](C)O)n(C)c2C)ccc1F [Example 218, (S)-N-(4-fluoro-3-methylphenyl)-5-(2-((2-hydroxypropyl)amino)-2-oxoacetyl)-1,2,4-trimethyl-1H-pyrrole-3-carboxamide] | 5000 to 30000 | > 7.30
Cc1cc(NC(=O)c2c(Cl)c(C(=O)C(=O)NCC(C)(C)O)n3c2CCCC3)ccc1F [Example 497, 2-chloro-N-(4-fluoro-3-methylphenyl)-3-(2-((2-hydroxy-2-methylpropyl)amino)-2-oxoacetyl)-5,6,7,8-tetrahydroindoliine-1-carboxamide] | 500 to 4990 | 6.30 to 7.30
O=C(NC1(CO)CC(F)(F)C1)C(=O)c1c(Cl)c(C(=O)Nc2ccnc(F)c2)c2n1CCCC2 [Example 511, 2-chloro-3-(2-((3,3-difluoro-1-(hydroxymethyl)cyclobutyl)amino)-2-oxoacetyl)-N-(2-fluoropyridin-4-yl)-5,6,7,8-tetrahydroindolizine-1-carboxamide] | > 30000 | 6.30 to 7.30
Cc1cc(NC(=O)c2c(C)c(C(=O)C(=O)N[C@H](C(=O)O)C(C)C)n(C)c2C)ccc1F [Example 100, (2-(4-((4-fluoro-3-methylphenyl)carbamoyl)-1,3,5-trimethyl-1H-pyrrol-2-yl)-2-oxoacetyl)-L-valine] | 5000 to 30000 | < 6.00
Cc1cc(NC(=O)c2c(C)c(C(=O)C(=O)N[C@H]3CC[C@@H](O)CC3)n(CCF)c2C)ccc1F [Example 210, N-(4-fluoro-3-methylphenyl)-1-(2-fluoroethyl)-5-(2-(((1s,4s)-4-hydroxycyclohexyl)amino)-2-oxoacetyl)-2,4-dimethyl-1H-pyrrole-3-carboxamide] | > 30000 | > 7.30
CC(C)(C)NC(=O)C(=O)c1cc(C(=O)Nc2ccc(F)c(F)c2)c2n1CCCC2 [Example 398, 3-(2-(tert-butylamino)-2-oxoacetyl)-N-(3,4-difluorophenyl)-5,6,7,8-tetrahydroindolizine-1-carboxamide] | > 30000 | 6.30 to 7.30
Cc1cc(NC(=O)c2c(C)c(C(=O)C(=O)N[C@H](CO)[C@@H](C)O)n(CCF)c2C)ccc1F [Example 177, 5-(2-(((2R,3R)-1,3-dihydroxybutan-2-yl)amino)-2-oxoacetyl)-N-(4-fluoro-3-methylphenyl)-1-(2-fluoroethyl)-2,4-dimethyl-1H-pyrrole-3-carboxamide] | 5000 to 30000 | 6.30 to 7.30
Cc1noc(C(NC(=O)C(=O)c2cc(C(=O)Nc3ccc(F)c(C)c3)c3n2CCCC3)C(C)C)n1 (stereo not drawn) [Example 394, N-(4-fluoro-3-methylphenyl)-3-(2-((2-methyl-1-(3-methyl-1,2,4-oxadiazol-5-yl)propyl)amino)-2-oxoacetyl)-5,6,7,8-tetrahydroindolizine-1-carboxamide] | > 30000 | 6.30 to 7.30
Cc1cc(NC(=O)c2c(C)c(C(=O)C(=O)NC3CCN(C4CCOCC4)CC3)n(C)c2C)ccc1F [Example 653, N-(4-fluoro-3-methylphenyl)-1,2,4-trimethyl-5-(2-oxo-2-((1-(tetrahydro-2H-pyran-4-yl)piperidin-4-yl)mino)acetyl)-1H-pyrrole-3-carboxamide] | > 30000 | 6.30 to 7.30
CNC(=O)[C@@H](NC(=O)C(=O)c1c(C)c(C(=O)Nc2ccc(F)c(C)c2)c(C)n1C)C1CCCC1 [Example 125, (S)-5-(2-((1-cyclopentyl-2-(methylamino)-2-oxoethyl)amino)-2-oxoacetyl)-N-(4-fluoro-3-methylphenyl)-1,2,4-trimethyl-1H-pyrrole-3-carboxamide] | 500 to 4990 | > 7.30
Cc1cc(NC(=O)c2c(C)c(C(=O)C(=O)N[C@@H]3CCCC[C@H]3O)n(C)c2C)cnc1F [Example 162, N-(6-fluoro-5-methylpyridin-3-yl)-5-(2-(((1R,2R)-2-hydroxycyclohexyl)amino)-2-oxoacetyl)-1,2,4-trimethyl-1H-pyrrole-3-carboxamide] | > 30000 | 6.30 to 7.30
